Assay results reported in paper PMC5602100, “Retro analog concept: comparative study on physico-chemical and biological properties of selected antimicrobial peptides” (Amino Acids, 2017).
Where two headings read alike, the source gives them in different places. Ends that are not written are not given here.

Columns and labels:
A. niger ATCC 16404 = system: A. niger ATCC 16404
Description: (§1) The minimal inhibitory concentrations (MICs) for bacteria and fungi were determined by the broth microdilution method according to the Clinical and Laboratory Standards Institute (CLSI) protocol (Clinical and Laboratory Standards Institute (CLSI) [2002], [2012]). For this purpose, the initial inoculums of bacteria (5 × 10^5 CFU/mL) in Mueller–Hinton Broth (Biocorp, Warsaw, Poland) were exposed to the ranging concentrations of compounds (0.125–256 µg/mL) and incubated for 18 h at 37 °C. In case of fungi, the initial inoculums of 2 × 10^3 CFU/mL in RPMI-1640 (Sigma-Aldrich, Steinheim, Germany) were exposed to the ranging concentrations of compounds (0.5–256 µg/mL) and incubated for 24 h at 37 °C. The experiments were conducted on 96-well microtiter plates, with the final volume of 100 µL. Cell densities were adjusted spectrophotometrically (Multiskan™ GO Microplate Spectrophotometer, Thermo Scientific) at the wavelengths of 600 nm for bacteria and 530 nm for fungi. The MIC was taken as the lowest drug concentration at which a noticeable growth of microorganisms was inhibited. Reference strains of bacteria: Escherichia coli ATCC 25922, E. coli ATCC 23506, Enterococcus faecalis PCM 2673, Klebsiella pneumoniae ATCC 700603, Pseudomonas aeruginosa ATCC 9027, Staphylococcus aureus ATCC 25923, S. aureus 9144, Streptococcus pneumoniae ATCC 49619, and fungi: Aspergillus niger ATCC 16404, Candida albicans ATCC 10231, and C. glabrata ATCC 15126 were obtained from Polish Collection of Microorganisms (PCM, Polish Academy of Sciences, Wroclaw, Poland) and from American Type Culture Collection (ATCC). All experiments were conducted in triplicate.

C. albicans ATCC 10231 = system: C. albicans ATCC 10231
Description: as §1

C. glabrata ATCC 15126 = system: C. glabrata ATCC 15126
Description: as §1

E. coli ATCC 23506 = system: E. coli ATCC 23506
Description: as §1

E. coli ATCC 25922 = system: E. coli ATCC 25922
Description: as §1

E. faecalis PCM 2673 = system: E. faecalis PCM 2673
Description: as §1

[1] = system: K. pneumoniae ATCC 700603
Description: as §1

P. aeruginosa ATCC 9027 = system: P. aeruginosa ATCC 9027
Description: as §1

S. aureus ATCC 25923 = system: S. aureus ATCC 25923
Description: as §1

S. aureus ATCC 9144 = system: S. aureus ATCC 9144
Description: as §1

S. pneumoniae ATCC 49619 = system: S. pneumoniae ATCC 49619
Description: as §1

[2] = system: human red blood cells (RBCs); assay: Hemolysis assay; type: cell-based; conditions: fresh human RBCs 4% (v/v) in PBS, 60 min at 37 °C, absorbance 540 nm, 100% control 1% Triton-X 100, triplicate
Description: The hemolysis assay was conducted according to the procedure described previously in the literature (Avrahami and Shai [2004]). Fresh human red blood cells (RBCs) with EDTA as anticoagulant were rinsed three times with a phosphate-buffer saline (PBS) by centrifugation at 800×g for 10 min and resuspended in PBS. Serial dilution of peptides (1–512 µg/mL) was conducted in PBS on 96-well plates. Then the stock solution of RBCs was added to reach a final volume of 100 µL with a 4% concentration of erythrocytes (v/v). The control wells for 0 and 100% hemolysis consisted of RBCs suspended in PBS and 1% of Triton-X 100, respectively. Subsequently, the plates were incubated for 60 min at 37 °C and then centrifuged at 800×g for 10 min at 4 °C (Sorvall ST 16R Centrifuge, Thermo Scientific). After centrifugation the supernatant was carefully […] to new microtiter plates and the release of hemoglobin was monitored by measurement of absorbance at 540 nm (Multiskan™ GO Microplate Spectrophotometer, Thermo Scientific). All experiments were conducted in triplicate.

[3] = broth microdilution (CLSI), 2 × 10^3 CFU/mL in RPMI-1640, 0.5–256 µg/mL, 24 h at 37 °C, triplicate
[4] = broth microdilution (CLSI), 5 × 10^5 CFU/mL in Mueller–Hinton Broth, 0.125–256 µg/mL, 18 h at 37 °C, triplicate

Row | Substance | MIC, A. niger ATCC 16404 (A. niger ATCC 16404; ATCC 16404, 24 h) | MIC, C. albicans ATCC 10231 (C. albicans ATCC 10231; ATCC 10231, 24 h) | MIC, C. glabrata ATCC 15126 (C. glabrata ATCC 15126; ATCC 15126, 24 h) | MIC, E. coli ATCC 23506 (E. coli ATCC 23506; ATCC 23506, 18 h) | MIC, E. coli ATCC 25922 (E. coli ATCC 25922; ATCC 25922, 18 h) | MIC, E. faecalis PCM 2673 (E. faecalis PCM 2673; PCM 2673, 18 h) | MIC, K. pneumoniae ATCC 700603 ([1]; ATCC 700603, 18 h) | MIC, P. aeruginosa ATCC 9027 (P. aeruginosa ATCC 9027; ATCC 9027, 18 h) | MIC, S. aureus ATCC 25923 (S. aureus ATCC 25923; ATCC 25923, 18 h) | MIC, S. aureus ATCC 9144 (S. aureus ATCC 9144; ATCC 9144, 18 h) | MIC, S. pneumoniae ATCC 49619 (S. pneumoniae ATCC 49619; ATCC 49619, 18 h) | MIC, A. niger ATCC 16404 (A. niger ATCC 16404; [3]) | MIC, C. albicans ATCC 10231 (C. albicans ATCC 10231; [3]) | MIC, C. glabrata ATCC 15126 (C. glabrata ATCC 15126; [3]) | MIC, K. pneumoniae ATCC 700603 [1, 4] | also measured
1 | FSEAIKKIIDFLG-NH2 [r-aurein 1.2] | >256 µg/mL | >256 µg/mL | >256 µg/mL | 256 µg/mL | 256 µg/mL | 256 µg/mL | 128 µg/mL | >256 µg/mL | >256 µg/mL | >256 µg/mL | 256 µg/mL |  |  |  |  | 
2 | LIGSLVRGILPLF-NH2 [r-temporin A] | 256 µg/mL | 256 µg/mL | >256 µg/mL | 256 µg/mL | 256 µg/mL | 256 µg/mL | 128 µg/mL | 256 µg/mL | 64 µg/mL | 64 µg/mL | >256 µg/mL |  |  |  |  | 
3 | GLFDVIKKVASVIGGL-NH2 [citropin 1.1] | 64 µg/mL | 128 µg/mL | 128 µg/mL | 32 µg/mL | 32 µg/mL | 32 µg/mL | 16 µg/mL | 128 µg/mL | 16 µg/mL | 16 µg/mL | 32 µg/mL |  |  |  |  | 
4 | FLPLIGRVLSGIL-NH2 [temporin A] | 256 µg/mL | 256 µg/mL | >256 µg/mL | >256 µg/mL | 256 µg/mL | 64 µg/mL | 128 µg/mL | >256 µg/mL | 4 µg/mL | 8 µg/mL | >256 µg/mL |  |  |  |  | 
5 | GIGKFLKKAKKFGKAFVKILKK-NH2 [pexiganan] | 16 µg/mL | 256 µg/mL | 256 µg/mL | 2 µg/mL | 4 µg/mL | 16 µg/mL | 1 µg/mL | 2 µg/mL | 8 µg/mL | 8 µg/mL | 1 µg/mL |  |  |  |  | 
6 | KWKLFKKIGAVLKVL-NH2 [CAMEL] |  |  |  |  |  |  |  |  |  |  |  | 16 µg/mL | 32 µg/mL | 64 µg/mL | 0.125 µg/mL | MIC, E. coli ATCC 23506 (E. coli ATCC 23506; [4]): 1 µg/mL; MIC, E. coli ATCC 25922 (E. coli ATCC 25922; [4]): 2 µg/mL; MIC, E. faecalis PCM 2673 (E. faecalis PCM 2673; [4]): 8 µg/mL; MIC, P. aeruginosa ATCC 9027 (P. aeruginosa ATCC 9027; [4]): 2 µg/mL; MIC, S. aureus ATCC 25923 (S. aureus ATCC 25923; [4]): 4 µg/mL; MIC, S. aureus ATCC 9144 (S. aureus ATCC 9144; [4]): 4 µg/mL; MIC, S. pneumoniae ATCC 49619 (S. pneumoniae ATCC 49619; [4]): 0.5 µg/mL
7 | LGGIVSAVKKIVDFLG-NH2 [r-citropin 1.1] | 256 µg/mL | 128 µg/mL | 256 µg/mL | 128 µg/mL | 64 µg/mL | 128 µg/mL | 32 µg/mL |  | 64 µg/mL | 64 µg/mL | 128 µg/mL |  |  |  |  | 
8 | GLFDIIKKIAESF-NH2 [aurein 1.2] |  |  |  | 128 µg/mL | 128 µg/mL | 64 µg/mL |  | 256 µg/mL | 128 µg/mL | 128 µg/mL | 64 µg/mL | 64 µg/mL | 128 µg/mL | 128 µg/mL | 16 µg/mL | rate of hemolysis at MIC concentrations [2]: lower than 10%
9 | ILRWPWWPWRRK-NH2 [omiganan] |  |  |  | 32 µg/mL | 16 µg/mL | 16 µg/mL |  | 16 µg/mL | 16 µg/mL | 16 µg/mL | 8 µg/mL | 64 µg/mL | 128 µg/mL | 128 µg/mL | 8 µg/mL | 
10 | KKLIKVFAKGFKKAKKLFKGIG-NH2 [r-pexiganan] | 32 µg/mL | 256 µg/mL | 128 µg/mL | 2 µg/mL | 8 µg/mL | 64 µg/mL | 0.25 µg/mL | 2 µg/mL | 128 µg/mL | 64 µg/mL | 4 µg/mL |  |  |  |  | 
11 | LVKLVAGIKKFLKWK-NH2 [r-CAMEL] |  |  |  |  |  |  |  |  |  |  |  | 256 µg/mL | 256 µg/mL | >256 µg/mL | 2 µg/mL | MIC, E. coli ATCC 23506 (E. coli ATCC 23506; [4]): 64 µg/mL; MIC, E. coli ATCC 25922 (E. coli ATCC 25922; [4]): 128 µg/mL; MIC, E. faecalis PCM 2673 (E. faecalis PCM 2673; [4]): 64 µg/mL; MIC, P. aeruginosa ATCC 9027 (P. aeruginosa ATCC 9027; [4]): 8 µg/mL; MIC, S. aureus ATCC 25923 (S. aureus ATCC 25923; [4]): 128 µg/mL; MIC, S. aureus ATCC 9144 (S. aureus ATCC 9144; [4]): 64 µg/mL; MIC, S. pneumoniae ATCC 49619 (S. pneumoniae ATCC 49619; [4]): 128 µg/mL; rate of hemolysis at MIC concentrations [2]: below 10%
